Measured values taken from US20030109432A1, “Anticancer polypeptide-metal complexes and compositions, methods of making, and methods of using same” (priority 2001, published 2003).

Test system: tumor tissues (breast)
Test: Immunohistopathology of tumor tissue after treatment
Format: in vivo
Details: 48 hours post treatment, FIG. 7
Text: After treatment with either cisplatin or the platinum peptide complex, tumor tissues (breast) were dissected and embedded in […]. The tumor tissue was fixed in […] and stained for cellular target expression.

Compound	histopathological changes
[NH2][Pt]([NH2])([Cl])[Cl] [CDDP, cisplatin]	marked necrosis and apoptosis
cis-1,2-DACH—Pt (II)-poly(glutamic/aspartic acid) [PDDP]	marked necrosis and apoptosis
